Measured values published in PubChem BioAssay AID248 (DTP/NCI, 2004).
Where “and” joins values, the source holds several entries; their conditions need not be identical. Equal values may be shown once. Toxic doses and inconclusive results are not listed. Rule as the data show it: active = T/C of 150% or more; inactive = T/C below 125%.

Tested on: L1210 leukemia ip in BDF1 mice, survival T/C
Test: NCI In Vivo Anticancer Drug Screen. Data for tumor model L1210 Leukemia (intraperitoneal) in B6D2F1 (BDF1) mice
Conditions: endpoint: mean survival time, higher = longer survival
Outline: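 Tumor cells were implanted, animals were treated, and survival was followed. The result divides the treated measurement by the vehicle-control measurement.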

[1] = dose: 100.0 mg/kg/injection, schedule: Q01DX009 (ip), vehicle: Klucel (hydroxypropylcellulose) (HPC)
[2] = dose: 100.0 mg/kg/injection, schedule: Q04DX003 (ip), vehicle: Klucel (hydroxypropylcellulose) (HPC)
[3] = dose: 200.0 mg/kg/injection, schedule: Q01DX009 (ip), vehicle: Klucel (hydroxypropylcellulose) (HPC)
[4] = dose: 200.0 mg/kg/injection, schedule: Q04DX003 (ip), vehicle: Klucel (hydroxypropylcellulose) (HPC)
[5] = dose: 400.0 mg/kg/injection, schedule: Q04DX003 (ip), vehicle: Klucel (hydroxypropylcellulose) (HPC)
[6] = dose: 100.0 mg/kg/injection, schedule: Q01DX001 (ip), vehicle: saline with Tween-80
[7] = dose: 200.0 mg/kg/injection, schedule: Q01DX001 (ip), vehicle: saline with Tween-80
[8] = dose: 400.0 mg/kg/injection, schedule: Q01DX001 (ip), vehicle: saline with Tween-80
[9] = dose: 400.0 mg/kg/injection, schedule: Q01DX009 (ip), vehicle: Klucel (hydroxypropylcellulose) (HPC)
[10] = dose: 100.0 mg/kg/injection, schedule: Q04DX003 (ip), vehicle: saline with Tween-80
[11] = dose: 25.0 mg/kg/injection, schedule: Q04DX003 (ip), vehicle: saline
[12] = dose: 50.0 mg/kg/injection, schedule: Q04DX003 (ip), vehicle: saline
[13] = dose: 100.0 mg/kg/injection, schedule: Q04DX003 (ip), vehicle: saline
[14] = dose: 100.0 mg/kg/injection, schedule: Q01DX001 (ip), vehicle: saline
[15] = dose: 200.0 mg/kg/injection, schedule: Q01DX001 (ip), vehicle: saline
[16] = dose: 400.0 mg/kg/injection, schedule: Q01DX001 (ip), vehicle: saline
[17] = dose: 50.0 mg/kg/injection, schedule: Q01DX001 (ip), vehicle: saline
[18] = dose: 100.0 mg/kg/injection, schedule: Q01DX009 (ip), vehicle: saline with Tween-80
[19] = dose: 200.0 mg/kg/injection, schedule: Q01DX009 (ip), vehicle: saline with Tween-80
[20] = dose: 200.0 mg/kg/injection, schedule: Q04DX003 (ip), vehicle: saline with Tween-80

Measured: T/C

CC1(C)C2CC3C(=CCC4C(=O)OC(=O)C43)C1C2 (stereo not given)
inactive: [1] 104 % of control | [2] 101 % of control | [3] 100 % of control | [4] 100 % of control | [5] 100 % of control

Nc1c(Br)cc(Br)c2c1-c1ccccc1C2=O
inactive: dose: 100.0 mg/kg/injection, schedule: Q01DX001 (ip), vehicle: carboxymethylcellulose (CMC) 98 % of control | dose: 200.0 mg/kg/injection, schedule: Q01DX001 (ip), vehicle: carboxymethylcellulose (CMC) 104 % of control | dose: 400.0 mg/kg/injection, schedule: Q01DX001 (ip), vehicle: carboxymethylcellulose (CMC) 102 % of control

CC(=O)NC1C(OCc2ccccc2)OC(COC(c2ccccc2)(c2ccccc2)c2ccccc2)C(OS(=O)(=O)c2ccc(C)cc2)C1OCc1ccccc1 (stereo not given)
inactive: [6] 100 % of control | [7] 86 % of control | [8] 100 % of control

CCCCN(CCCC)c1ccc(N=C(C#N)c2ccc(N(CCCC)CCCC)cc2)cc1
inactive: [1] 96 % of control | [3] 96 % of control | [9] 105 % of control

CCCCCCCCC[n+]1ccc(C(N)=O)cc1
inactive: [10] 98 % of control

Cc1cc(C)nc(NC(=O)Nc2ccccc2)c1
inactive: [1] 93 % of control | [2] 94 % of control | [4] 92 % of control | [9] 100 % of control | [5] 89 % of control

O=C(COc1cc2ccccc2cc1C(=O)O)NCc1ccc(Cl)cc1
inactive: [11] 96 % of control | [12] 100 % of control | [13] 101 % of control | dose: 200.0 mg/kg/injection, schedule: Q04DX003 (ip), vehicle: saline 101 % of control

C[n+]1cccc2ccccc21
inactive: dose: 12.5 mg/kg/injection, schedule: Q04DX003 (ip), vehicle: saline 96 % of control | [11] 93 % of control and 91 % of control | [12] 93 % of control and 95 % of control | [13] 93 % of control and 105 % of control

OC(CCl)COCC#Cc1ccccc1 (stereo not given)
inactive: dose: 100.0 mg/kg/injection, schedule: Q01DX009 (ip), vehicle: saline sonified 93 % of control | dose: 100.0 mg/kg/injection, schedule: Q04DX003 (ip), vehicle: saline sonified 101 % of control | dose: 200.0 mg/kg/injection, schedule: Q01DX009 (ip), vehicle: saline sonified 96 % of control | dose: 200.0 mg/kg/injection, schedule: Q04DX003 (ip), vehicle: saline sonified 93 % of control | dose: 400.0 mg/kg/injection, schedule: Q01DX009 (ip), vehicle: saline sonified 93 % of control | dose: 400.0 mg/kg/injection, schedule: Q04DX003 (ip), vehicle: saline sonified 92 % of control

CC1(C)N=C(N)N=C(N)N1c1ccc(OCCCNC(=O)Nc2cccc(S(=O)(=O)F)c2)c(Cl)c1
inactive: dose: 50.0 mg/kg/injection, schedule: Q01DX009 (ip), vehicle: saline 114 % of control

N#C/C(=C\c1cccc2ccccc12)c1ccc(Cl)cc1
inactive: dose: 87.5 mg/kg/injection, schedule: Q01DX009 (ip), vehicle: Klucel (hydroxypropylcellulose) (HPC) 95 % of control | dose: 175.0 mg/kg/injection, schedule: Q01DX009 (ip), vehicle: Klucel (hydroxypropylcellulose) (HPC) 96 % of control | dose: 350.0 mg/kg/injection, schedule: Q01DX009 (ip), vehicle: Klucel (hydroxypropylcellulose) (HPC) 97 % of control

CCOC(=O)/C=C(\C)C(C)(C)C(C)=O
inactive: [14] 90 % of control | [15] 101 % of control | [16] 98 % of control

O=P1(O)[O][Sn]([c]2ccccc2)([c]2ccccc2)[O]1
inactive: dose: 6.25 mg/kg/injection, schedule: Q01DX009 (ip), vehicle: saline with Tween-80 97 % of control | dose: 12.5 mg/kg/injection, schedule: Q01DX009 (ip), vehicle: saline with Tween-80 97 % of control

COC1OCC(NC(C)=O)C(O)C1O (stereo not given)
inactive: [17] 102 % of control | [14] 102 % of control | [15] 100 % of control | [16] 107 % of control

CC12CC3CC(C)(C1)CC(SC(=N)N)(C3)C2
inactive: dose: 10.0 mg/kg/injection, schedule: Q04DX002 (ip), vehicle: Klucel (hydroxypropylcellulose) (HPC) 97 % of control | dose: 20.0 mg/kg/injection, schedule: Q04DX002 (ip), vehicle: Klucel (hydroxypropylcellulose) (HPC) 102 % of control | dose: 40.0 mg/kg/injection, schedule: Q04DX002 (ip), vehicle: Klucel (hydroxypropylcellulose) (HPC) 105 % of control

CCCCOC(=O)Nc1ccccc1
inactive: dose: 100.0 mg/kg/injection, schedule: Q04DX003 (ip), vehicle: gum acacia 101 % of control | dose: 200.0 mg/kg/injection, schedule: Q04DX003 (ip), vehicle: gum acacia 108 % of control | dose: 400.0 mg/kg/injection, schedule: Q04DX003 (ip), vehicle: gum acacia 109 % of control

CCCCNc1c(C(=O)OCC)cnc2c1cnn2CC
inactive: dose: 12.0 mg/kg/injection, schedule: Q01DX009 (ip), vehicle: Klucel (hydroxypropylcellulose) (HPC) 100 % of control | dose: 25.0 mg/kg/injection, schedule: Q01DX009 (ip), vehicle: Klucel (hydroxypropylcellulose) (HPC) 96 % of control | dose: 50.0 mg/kg/injection, schedule: Q01DX009 (ip), vehicle: Klucel (hydroxypropylcellulose) (HPC) 106 % of control | dose: 75.0 mg/kg/injection, schedule: Q01DX009 (ip), vehicle: Klucel (hydroxypropylcellulose) (HPC) 96 % of control

COc1ccccc1CN1CCCN(Cc2ccccc2OC)C1c1cc(Cl)cc(Cl)c1O
inactive: [17] 98 % of control | [14] 111 % of control | [15] 104 % of control | [16] 98 % of control

Nc1nc(N)c(N)c(Nc2ccc(Cl)cc2)n1
inactive: dose: 100.0 mg/kg/injection, schedule: Q04DX002 (ip), vehicle: Klucel (hydroxypropylcellulose) (HPC) 101 % of control | dose: 200.0 mg/kg/injection, schedule: Q04DX002 (ip), vehicle: Klucel (hydroxypropylcellulose) (HPC) 101 % of control

CCC1=C/C(=C/c2cc(Cl)ccc2O)C(=O)S1
inactive: [6] 91 % of control | [7] 87 % of control | [8] 94 % of control

C(CCCCc1nn[nH]n1)CCCc1nn[nH]n1
inactive: [2] 94 % of control | [4] 103 % of control | [5] 91 % of control

CC(=O)SCCC(=O)NCNC(=O)CCSC(C)=O
inactive: [18] 96 % of control | [10] 93 % of control | [19] 96 % of control | [20] 93 % of control | dose: 400.0 mg/kg/injection, schedule: Q01DX009 (ip), vehicle: saline with Tween-80 100 % of control | dose: 400.0 mg/kg/injection, schedule: Q04DX003 (ip), vehicle: saline with Tween-80 92 % of control

O=C(O)CCCCOc1ccccc1
inactive: dose: 75.0 mg/kg/injection, schedule: Q04DX003 (ip), vehicle: saline 97 % of control | dose: 150.0 mg/kg/injection, schedule: Q04DX003 (ip), vehicle: saline 103 % of control

O=C1CC2C(=O)C1C(C(=O)O)C2C(=O)O (stereo not given)
inactive: dose: 75.0 mg/kg/injection, schedule: Q01DX001 (ip), vehicle: saline 112 % of control | dose: 150.0 mg/kg/injection, schedule: Q01DX001 (ip), vehicle: saline 102 % of control | dose: 300.0 mg/kg/injection, schedule: Q01DX001 (ip), vehicle: saline 95 % of control

C=CCOc1ccc(Cl)cc1
inactive: [10] 90 % of control | [20] 94 % of control

Cc1ccc(S(=O)(=O)N(C)c2ccc3cc(C(=O)O)ccc3c2)cc1
inactive: [1] 94 % of control | [2] 102 % of control | [3] 95 % of control | [4] 106 % of control | [9] 94 % of control | [5] 90 % of control

CC(NC(=O)OCc1ccccc1)C(=O)NC1C(CO)OC(n2cnc3c(N)ncnc32)C1O (stereo not given)
inactive: [14] 94 % of control | [15] 103 % of control | [16] 100 % of control

CC(=O)OC(C)c1ccccc1 (stereo not given)
inactive: [1] 112 % of control | [3] 106 % of control | [9] 101 % of control

O=C(/C(=N\O)c1ccc(Cl)cc1)c1ccc(Cl)cc1
inactive: dose: 50.0 mg/kg/injection, schedule: Q01DX009 (ip), vehicle: saline with Tween-80 100 % of control | [18] 89 % of control | [19] 92 % of control

c1ccc(C2(c3ccccc3)CC([P+](c3ccccc3)(c3ccccc3)c3ccccc3)N=N2)cc1 (stereo not given)
inactive: dose: 10.0 mg/kg/injection, schedule: Q01DX001 (ip), vehicle: saline 103 % of control | dose: 20.0 mg/kg/injection, schedule: Q01DX001 (ip), vehicle: saline 111 % of control | dose: 40.0 mg/kg/injection, schedule: Q01DX001 (ip), vehicle: saline 112 % of control
